Our source for the Ki values is patent US20020037872A1, “N6 heterocyclic 5' modified adenosine derivatives” (CV Therapeutics, Inc., priority 1999, published 2002).

Experiment [1] deals with T1, A1 receptor (Sus scrofa, UniProt I3LEN5).
T1 sequence (I3LEN5 1-326): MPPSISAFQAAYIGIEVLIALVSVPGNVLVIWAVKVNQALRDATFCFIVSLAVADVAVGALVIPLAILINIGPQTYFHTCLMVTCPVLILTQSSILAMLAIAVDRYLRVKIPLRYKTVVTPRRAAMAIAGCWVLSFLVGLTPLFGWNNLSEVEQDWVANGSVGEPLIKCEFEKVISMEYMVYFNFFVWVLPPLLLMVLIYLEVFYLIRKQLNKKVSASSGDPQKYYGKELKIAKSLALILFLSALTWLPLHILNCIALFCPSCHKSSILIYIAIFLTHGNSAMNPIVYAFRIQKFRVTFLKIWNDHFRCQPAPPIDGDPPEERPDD
Kind of experiment: Competitive binding assay, pig striatum membrane prep, [3H]CPX. The settings on record: [3H]CPX 2 nM, pig striatal membranes. Here is the method: Competitive Binding Assay Pig striatum were prepared by homogenation in 50 mM Tris buffer (5× volume of tissue mass pH=7.4). After centrifilgation at 19,000 rpm for 25 minutes at 4° C., the supernatant was discarded, and the process was repeated twice. Compositions of this invention were assayed to determine their affinity for the A1 receptor in a pig striatum membrane prep or a DDT, membrane prep. Briefly, 0.2 mg of pig striatal membranes or DDT, cell membranes were treated with adenosine deaminase and 50 mM Tris buffer (pH=7.4) followed by mixing. To the pig membranes was added 2 μL of serially diluted DMSO stock solution of the compounds of this invention at concentrations ranging from 100 microM to 10 nM. The control received 2 microL of DMSO alone, then the antagonist [^3H] 8-cyclopentylxanthine (CPX) for pig striatum or the agonist [^3H] 2-chloro-6-cyclopentyladenosine (CCPA) for DDT, membranes in Tris buffer (50 mnM, pH of 7.4) was added to achieve a final concentration of 2 nM. After incubation at 23 C for 2 h, the solutions were filtered using a membrane harvester using multiple washing of the membranes (3×). The filter disks were counted in scintillation cocktail affording the amount of displacement of triated CPX or by the competitive binding compositions of this invention. […]

In experiment [2] the target is T2, A1 receptor (Mesocricetus auratus, UniProt A0A1U8BVR4).
T2 construct: endogenous in cells; host or cells: DDT1 (DDT1 MF-2) hamster vas deferens smooth muscle cells
T2 sequence (A0A1U8BVR4 1-326): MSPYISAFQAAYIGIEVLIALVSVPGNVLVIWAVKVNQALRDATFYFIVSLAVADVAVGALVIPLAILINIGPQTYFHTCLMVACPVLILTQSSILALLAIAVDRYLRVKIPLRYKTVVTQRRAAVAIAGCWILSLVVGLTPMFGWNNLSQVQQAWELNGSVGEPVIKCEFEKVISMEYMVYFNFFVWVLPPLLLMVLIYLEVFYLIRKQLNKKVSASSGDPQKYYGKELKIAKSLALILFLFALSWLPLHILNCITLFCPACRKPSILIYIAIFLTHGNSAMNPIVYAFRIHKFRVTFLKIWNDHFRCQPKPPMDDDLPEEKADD
Kind of experiment: Competitive binding assay, DDT1 cell membranes, [3H]CCPA. Also on record: species or system hamster. The settings on record: [3H]CCPA 2 nM, DDT1 cell membranes; read-out: Ki-DDT1 cell membrane.

For the compound `CNC(=O)OC[C@H]1O[C@@H](n2cnc3c(N[C@@H]4CCOC4)ncnc32)[C@H](O)[C@@H]1O` [Compound 6, (5-16[((3R)oxolan-3-yl)aminolpurin-9-yl)(3S,2R,4R,5R)-3,4dihydroxyoxolan-2yl)methoxyl-N-methylearboxamide], the Ki (as a rule, the equilibrium dissociation constant of an inhibitor or competing ligand from its target) in experiment [1] amounted to 228 nM; in experiment [2], 178 nM.
